The source made the active and inactive calls. No cut-off for these calls is given here.
Columns and labels:
[1] = Metabolic stability in human liver microsomes assessed as half life; format: ADME, Microsome
[2] = test system: SMMC-7721; assay: Antiproliferative activity against human SMMC-7721 cells assessed as reduction in cell viability incubated for 72 hrs by MTT assay; format: functional, cell-based; conditions: SMMC-7721, 72 h
[3] = test system: Hep 3B2; assay: Induction of cell cycle arrest in human Hep3B cells assessed as accumulation at S phase at 1 uM incubated for 48 hrs by flow cytometry analysis (reference value: 30.56 %); format: functional
[4] = test system: Hep 3B2; assay: Induction of apoptosis in human Hep3B cells assessed as late apoptotic cells at 1 uM measured after 48 hrs by Annexin V/FITC-PI staining based flow cytometry assay (reference value: 3.14%); format: functional
[5] = test system: Hep 3B2; assay: Induction of cell cycle arrest in human Hep3B cells assessed as accumulation at G2/M phase at 10 uM incubated for 48 hrs by flow cytometry analysis (reference value: 8.59 %); format: functional
[6] = test system: Hep 3B2; assay: Induction of apoptosis in human Hep3B cells assessed as viable cells at 2.5 uM measured after 48 hrs by Annexin V/FITC-PI staining based flow cytometry assay (reference value: 90.09%); format: functional; conditions: read-out: Activity
[7] = test system: Hep 3B2; assay: Induction of apoptosis in human Hep3B cells assessed as viable cells at 5 uM measured after 48 hrs by Annexin V/FITC-PI staining based flow cytometry assay (reference value: 90.09%); format: functional; conditions: read-out: Activity
[8] = test system: hERG; assay: Selectivity ratio of IC50 for inhibition of hERG by automated patch clamp analysis to IC50 for antiproliferative activity against human SNU-387 cells assessed as reduction in cell viability incubated for 72 hrs by MTT assay; format: toxicity, cell-based; conditions: read-out: Ratio IC50
[9] = test system: SNU-387; assay: Antiproliferative activity against human SNU-387 cells assessed as reduction in cell viability incubated for 72 hrs by MTT assay; format: functional, cell-based; conditions: SNU-387, 72 h
[10] = Metabolic stability in human liver microsomes assessed as intrinsic clearance; format: ADME, Microsome; conditions: read-out: CLH
[11] = test system: Hep 3B2; assay: Induction of cell cycle arrest in human Hep3B cells assessed as accumulation at G0/G1 phase at 2.5 uM incubated for 48 hrs by flow cytometry analysis (reference value: 60.85 %); format: functional
[12] = test system: Hep 3B2; assay: Induction of apoptosis in human Hep3B cells assessed as early apoptotic cells at 10 uM measured after 48 hrs by Annexin V/FITC-PI staining based flow cytometry assay (reference value: 6.65%); format: functional
[13] = test system: hERG; assay: Selectivity ratio of IC50 for inhibition of hERG by automated patch clamp analysis to IC50 for antiproliferative activity against human HepG2 cells assessed as reduction in cell viability incubated for 72 hrs by MTT assay; format: toxicity, cell-based; conditions: read-out: Ratio IC50
[14] = Metabolic stability in rat liver microsomes assessed as intrinsic clearance; format: ADME, Microsome; conditions: read-out: CLH
[15] = test system: HepG2; assay: Antiproliferative activity against human HepG2 cells assessed as reduction in cell viability incubated for 72 hrs by MTT assay; format: functional, cell-based; conditions: HepG2, 72 h
[16] = target: T1, 14-3-3 protein eta (Homo sapiens) (UniProt Q04917); assay: Inhibition of 14-3-3 eta in human Hep3B cells assessed as reduction in AKT phosphorylation at S473 residue measured after 24 hrs by western blot analysis; format: cell-based; conditions: dose 0.5-5 µM, DDE = dose-dependent effect
T1 sequence (whole entry): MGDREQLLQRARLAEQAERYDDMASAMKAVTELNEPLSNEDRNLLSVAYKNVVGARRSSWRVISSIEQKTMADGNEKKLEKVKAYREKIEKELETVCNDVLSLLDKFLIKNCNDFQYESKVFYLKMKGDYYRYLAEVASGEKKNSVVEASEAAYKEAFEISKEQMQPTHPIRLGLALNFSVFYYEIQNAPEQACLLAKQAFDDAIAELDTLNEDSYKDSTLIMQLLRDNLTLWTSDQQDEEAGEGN

[17] = test system: Hep 3B2; assay: Antiproliferative activity against human Hep3B cells assessed as reduction in cell viability incubated for 72 hrs by MTT assay; format: functional, cell-based
[18] = test system: hERG; assay: Selectivity ratio of IC50 for inhibition of hERG by automated patch clamp analysis to IC50 for antiproliferative activity against human BEL-7402/5-FU cells assessed as reduction in cell viability incubated for 72 hrs by MTT assay; format: toxicity, cell-based; conditions: read-out: Ratio IC50
[19] = test system: Hep 3B2; assay: Induction of cell cycle arrest in human Hep3B cells assessed as accumulation at G2/M phase at 1 uM incubated for 48 hrs by flow cytometry analysis (reference value: 8.59 %); format: functional
[20] = test system: Hep 3B2; assay: Induction of cell cycle arrest in human Hep3B cells assessed as accumulation at G0/G1 phase at 1 uM incubated for 48 hrs by flow cytometry analysis (reference value: 60.85 %); format: functional
[21] = test system: Hep 3B2; assay: Induction of cell cycle arrest in human Hep3B cells assessed as accumulation at S phase at 5 uM incubated for 48 hrs by flow cytometry analysis (reference value: 30.56 %); format: functional
[22] = test system: Bel7402/5-FU; assay: Antiproliferative activity against human BEL-7402/5-FU cells overexpressing 14-3-3 eta assessed as reduction in cell viability incubated for 72 hrs by MTT assay; format: functional, cell-based
[23] = test system: Hep 3B2; assay: Induction of apoptosis in human Hep3B cells assessed as necrotic cells at 2.5 uM measured after 48 hrs by Annexin V/FITC-PI staining based flow cytometry assay (reference value: 0.12%); format: functional
[24] = test system: Hep 3B2; assay: Induction of apoptosis in human Hep3B cells assessed as upregulation of cleaved caspase-3 expression at 5 to 20 uM measured after 48 hrs by Western blot analysis; format: functional, cell-based; conditions: dose 5-20 µM
[25] = test system: Hep 3B2; assay: Antiproliferative activity against human Hep3B cells assessed as reduction in cell viability measured after 7 days by crystal violet staining based assay; format: functional; conditions: dose 1-10 µM, time 7.0 day, DDE = dose-dependent effect
[26] = test system: Hep 3B2; assay: Induction of apoptosis in human Hep3B cells assessed as necrotic cells at 5 uM measured after 48 hrs by Annexin V/FITC-PI staining based flow cytometry assay (reference value: 0.12%); format: functional
[27] = test system: Hep 3B2; assay: Induction of apoptosis in human Hep3B cells assessed as viable cells at 10 uM measured after 48 hrs by Annexin V/FITC-PI staining based flow cytometry assay (reference value: 90.09%); format: functional; conditions: read-out: Activity
[28] = test system: Hep 3B2; assay: Downregulation of AKT expression in human Hep3B cells measured after 24 hrs by western blot analysis; format: functional, cell-based; conditions: dose 0.5-5 µM, DDE = dose-dependent effect
[29] = test system: hERG; assay: Selectivity ratio of IC50 for inhibition of hERG by automated patch clamp analysis to IC50 for antiproliferative activity against human Hep3B cells assessed as reduction in cell viability incubated for 72 hrs by MTT assay; format: toxicity, cell-based; conditions: read-out: Ratio IC50
[30] = test system: Hep 3B2; assay: Induction of apoptosis in human Hep3B cells assessed as necrotic cells at 1 uM measured after 48 hrs by Annexin V/FITC-PI staining based flow cytometry assay (reference value: 0.12%); format: functional
[31] = target: T1, 14-3-3 protein eta (Homo sapiens); assay: Inhibition of 14-3-3 eta in human Hep3B cells assessed as reduction in ERK phosphorylation measured after 24 hrs by western blot analysis; format: cell-based; conditions: dose 0.5-5 µM, DDE = dose-dependent effect
[32] = test system: Bel-7402; assay: Antiproliferative activity against human Bel-7402 cells assessed as reduction in cell viability incubated for 72 hrs by MTT assay; format: functional, cell-based; conditions: Bel-7402, 72 h
[33] = Metabolic stability in rat liver microsomes assessed as half life; format: ADME, Microsome
[34] = target: T2, 14-3-3 protein eta (Homo sapiens, UniProt Q04917); assay: Binding affinity to 14-3-3 eta (unknown origin) assessed as dissociation constant by biolayer interferometry assay
T2 sequence (Q04917 whole entry): T1 sequence (whole entry)

Compound: COc1cccc(CNCc2c(C(=O)O)n(Cc3ccc(C)cc3)c3cc(C(C)C)ccc23)c1
- half-life [1]: 7.31 min
- IC50 [2]: 2.92 µM
- Activity [3]: 35.59%
- Activity [4]: 4.86%
- Activity [5]: 2.59%
- viability at 2.5 µM [6]: 86%
- viability at 5 µM [7]: 79.9%
- selectivity ratio at 72 h [8]: 6.32
- IC50 [9]: 5.47 µM
- CLint scaled [10]: 238 mL/min/kg
- Activity [11]: 59.12%
- Activity [12]: 21.73%
- selectivity ratio at 72 h [13]: 10.1
- CLint scaled [14]: 269 mL/min/kg
- IC50 [15]: 3.43 µM
- inhibition [16]: Dde
- IC50 [17]: 4.07 µM
- selectivity ratio at 72 h [18]: 5.84
- Activity [19]: 5.79%
- Activity [20]: 58.63%
- Activity [21]: 37.73%
- IC50 [22]: 4.55 µM
- Activity [23]: 0.27%
- Activity [24]: Active
- Activity [25]: Dde
- Activity [26]: 1.07%
- viability at 10 µM [27]: 61.9%
- inhibition [28]: Dde
- selectivity ratio at 72 h [29]: 8.5
- Activity [30]: 0.38%
- inhibition [31]: Dde
- IC50 [32]: 5.92 µM
- half-life [33]: 9.25 min
- Kd [34]: 35 µM
